Measurements taken from patent US20020062499A1, “Methods for translational repression of gene expression in plants” (priority 2000, published 2002).

What was measured:
[1] = tested on: transgenic corn lines; test: Field test of MS2 translation repression system transgenic corn lines; assay type: in vivo; details: 32 oz/acre Roundup® at the 6-8 leaf stage; transgenic TRS corn lines
Protocol: Field tests are conducted to evaluate the vegetative tolerance and male sterility of transgenic corn lines selected from the greenhouse tests. Lines for the field trial are selected based on previous scores showing good to excellent vegetative tolerance, very high or complete male sterility induced by glyphosate, and available seed supply. The pedigree of plants in the field test is either [(Ro×B73)×B73] or (B73×Ro). Based on these pedigrees, it is expected that half of the plants in a plot would be killed by glyphosate (formulated Roundup®) application, because they would not contain the transgene.
The field test is set up in two blocks, each block containing four groups of plots that would receive a single spray treatment. The treatments are (1) no spray, (2) 32 oz/acre Roundup® at the 1-2 leaf stage, (3) 32 oz/acre Roundup® at the 4-5 leaf stage, and (4) 32 oz/acre Roundup® at the 6-8 leaf stage. Plants are scored for male fertility when they began to flower, and scoring is repeated every 1-2 days for about eight days. Observations included the length of time between emergence of the tassel from the first plants and from the last plant in each plot. A sample of the anthers is collected from each plant, and the viability of pollen is judged with the aid of a hand-held microscope.

[2] = tested on: non-transgenic parental control plant (M202); test: Glyphosate treatment of non-transgenic parental control rice; assay type: in vivo; details: 64 oz./A glyphosate
Excerpt: The anther-specific promoter P-Ta.1674-19 is amplified from wheat genomic DNA by Genome Walker™ as a HindIII/BglII fragment, digested with these two enzymes, and the fragment ligated into pMON42180 (FIG. 3) digested with the same enzymes, resulting in pMON52000. The plant expression vector pMON52001 (FIG. 27) is constructed by taking the Not I fragment containing of P-Ta. 1674-19/I-Zm.Hsp70/MS2. CP:en/T-AGRTU.nos from pMON52000 and ligating into pMON42916 (FIG. 7) digested with Not I. pMON42438 (FIG. 28) and pMON42439 (FIG. 29) are constructed by replacing the wheat P-Ta. 1674-19 promoter element of pMON52001 with corn anther-specific promoters P-700353038 and P-70053844, respectively. pMON42945 (FIG. 30) is constructed by ligating the Not I fragment consisting of P-L1482830/I-Zm.Hsp70/MS2.CP:en/T-AGRTU.nos into pMON42916. These promoter elements are isolated from wheat and corn anther DNA libraries by Genome Walker™. Rice variety M202 is transformed by Agrobacterium-mediated transformation. […] Vegetative tolerance to the glyphosate is visually evaluated 21 DAT (day after treatment) based on a scale of 0 to 5 (as discussed above). […] Male sterility is scored at maturity by counting the number of empty florets and dividing by the total number of florets (filled plus empty) in each panicle.

Structure (SMILES): O=C(O)CNCP(=O)(O)O [glyphosate, N-phosphonomethylglycine]
- male sterility under field conditions [1]: very effective for producing male sterility
- effect of the glyphosate treatment on the non-transgenic parental control plant [2]: killed
